Key:
[1] = tested on: Com21 synthetic gut community; assay: community biomass OD578 after 24 h drug treatment relative to untreated (fraction of untreated control); higher = more community growth; settings: community: Com21 (Com20 + E. coli ED1a)
Experimental: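 Com21 (Com20 plus E. coli ED1a) was treated with drug for 24 h under anaerobic conditions in mGAM. Community OD578 was then measured and normalised to untreated Com21; mean of 3 biological replicates.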

Shigella flexneri = assay: IC25 growth inhibition; higher = less potent
Summary of the method: (§1)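 Monocultures grown overnight in mGAM were added to pre-reduced plates holding twofold drug dilutions, giving a starting OD578 of 0.01 and 1% DMSO (or water). Growth was followed anaerobically by hourly OD578 readings in a plate reader, with at least three biological replicates. The median growth-curve AUC per concentration was forced to be monotonic. IC25 was the lowest concentration with median AUC below 0.75, reported as a tested interval.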

[2] = tested on: Yersinia pseudotuberculosis; assay: IC25 growth inhibition; higher = less potent
Summary of the method: as §1

Clostridium ramosum = assay: IC25 growth inhibition; higher = less potent
Summary of the method: as §1

[3] = tested on: Streptococcus parasanguinis; assay: IC25 growth inhibition; higher = less potent
Summary of the method: as §1

Roseburia intestinalis = assay: IC25 growth inhibition; higher = less potent
Summary of the method: as §1

Vibrio cholerae = assay: IC25 growth inhibition; higher = less potent
Summary of the method: as §1

Escherichia coli ED1a = assay: IC25 growth inhibition; higher = less potent
Summary of the method: as §1

Coprococcus comes = assay: IC25 growth inhibition; higher = less potent
Summary of the method: as §1

Eubacterium rectale = assay: IC25 growth inhibition; higher = less potent
Summary of the method: as §1

Streptococcus salivarius = assay: IC25 growth inhibition; higher = less potent
Summary of the method: as §1

Bacteroides fragilis NT = assay: IC25 growth inhibition; higher = less potent
Summary of the method: as §1

[4] = tested on: Salmonella enterica typhimurium; assay: IC25 growth inhibition; higher = less potent
Summary of the method: as §1

[5] = tested on: Bacteroides thetaiotaomicron; assay: IC25 growth inhibition; higher = less potent
Summary of the method: as §1

Clostridium perfringens = assay: IC25 growth inhibition; higher = less potent
Summary of the method: as §1

[6] = tested on: Yersinia enterocolitica WA-314; assay: IC25 growth inhibition; higher = less potent
Summary of the method: as §1

Ruminococcus gnavus = assay: IC25 growth inhibition; higher = less potent
Summary of the method: as §1

[7] = tested on: Fusobacterium nucleatum subsp. Nucleatum; assay: IC25 growth inhibition; higher = less potent
Summary of the method: as §1

Collinsella aerofaciens = assay: IC25 growth inhibition; higher = less potent
Summary of the method: as §1

Bacteroides vulgatus = assay: IC25 growth inhibition; higher = less potent
Summary of the method: as §1

Parabacteroides merdae = assay: IC25 growth inhibition; higher = less potent
Summary of the method: as §1

Dorea formicigenerans = assay: IC25 growth inhibition; higher = less potent
Summary of the method: as §1

[8] = tested on: Clostridium saccharolyticum; assay: IC25 growth inhibition; higher = less potent
Summary of the method: as §1

Bacteroides uniformis = assay: IC25 growth inhibition; higher = less potent
Summary of the method: as §1

Clostridium bolteae = assay: IC25 growth inhibition; higher = less potent
Summary of the method: as §1

[9] = drug pretreatment concentration 10 µM
[10] = drug pretreatment concentration 20 µM
[11] = drug pretreatment concentration 40 µM
[12] = drug pretreatment concentration 80 µM
[13] = drug pretreatment concentration 160 µM
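Throughout, for IC25 growth inhibition: lowest concentration where monotonic median growth AUC falls below 0.75 of drug-free control.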

SMILES	community biomass OD578 [1, 9]	community biomass OD578 [1, 10]	community biomass OD578 [1, 11]	community biomass OD578 [1, 12]	community biomass OD578 [1, 13]	IC25 growth inhibition (Shigella flexneri) [µM]	IC25 growth inhibition [2] [µM]	IC25 growth inhibition (Clostridium ramosum) [µM]	IC25 growth inhibition [3] [µM]	IC25 growth inhibition (Roseburia intestinalis) [µM]	IC25 growth inhibition (Vibrio cholerae) [µM]	IC25 growth inhibition (Escherichia coli ED1a) [µM]	IC25 growth inhibition (Coprococcus comes) [µM]	IC25 growth inhibition (Eubacterium rectale) [µM]	IC25 growth inhibition (Streptococcus salivarius) [µM]	IC25 growth inhibition (Bacteroides fragilis NT) [µM]	IC25 growth inhibition [4] [µM]	IC25 growth inhibition [5] [µM]	IC25 growth inhibition (Clostridium perfringens) [µM]	IC25 growth inhibition [6] [µM]	IC25 growth inhibition (Ruminococcus gnavus) [µM]	IC25 growth inhibition [7] [µM]	IC25 growth inhibition (Collinsella aerofaciens) [µM]	IC25 growth inhibition (Bacteroides vulgatus) [µM]	IC25 growth inhibition (Parabacteroides merdae) [µM]	IC25 growth inhibition (Dorea formicigenerans) [µM]	IC25 growth inhibition [8] [µM]	IC25 growth inhibition (Bacteroides uniformis) [µM]	IC25 growth inhibition (Clostridium bolteae) [µM]	community biomass OD578 ([1]; drug pretreatment concentration 2.5 µM)	community biomass OD578 ([1]; drug pretreatment concentration 5 µM)
CCCc1nc2c(C)cc(-c3nc4ccccc4n3C)cc2n1Cc1ccc(-c2ccccc2C(=O)O)cc1 [Telmisartan]	0.994	0.966	0.932	0.892	0.956	> 40	> 40	≤ 40	> 160	> 160	> 40	> 160	> 80	> 80	≤ 40	> 160	> 160	> 160	> 160	> 40	> 160	> 80	> 160	> 160	> 160	> 80	> 80	> 160	> 80		
CC(C)(C)c1ccc(C(O)CCCN2CCC(C(O)(c3ccccc3)c3ccccc3)CC2)cc1 (stereo not drawn) [Terfenadine]	0.953	0.96	0.863	0.542	0.35	> 80	> 80	> 80	≤ 80	≤ 10	> 40	> 160	≤ 80	≤ 80	≤ 80	≤ 80	> 160	≤ 80	≤ 80	> 40	≤ 20	≤ 80	≤ 20	≤ 40	≤ 80	≤ 20	≤ 40	≤ 80	≤ 80		
Nc1nc(=S)c2ncn([C@@H]3O[C@H](CO)[C@@H](O)[C@H]3O)c2[nH]1 [Thioguanosine]	1.02	1.05	1.01			≤ 2.5	≤ 20	> 40	> 40	> 40	> 40	≤ 2.5	> 40	> 40	> 40	> 40	> 40	> 40	> 40	> 40	> 40	> 40	> 40	> 40	> 40	> 40	> 40	> 40	> 40	1.01	1.01
NC[C@H]1O[C@H](O[C@H]2[C@H](O)[C@@H](O[C@H]3O[C@H](CO)[C@@H](O)[C@H](N)[C@H]3O)[C@H](N)C[C@@H]2N)[C@H](N)C[C@@H]1O [Tobramycin]	1.01	0.969	0.972	0.983	0.992	≤ 40	≤ 20	≤ 160	≤ 5	≤ 10	≤ 160	≤ 20	≤ 40	≤ 20	≤ 5	> 160	≤ 160	> 160	≤ 20	≤ 40	≤ 40	≤ 80	≤ 10	> 160	> 160	> 160	≤ 10	> 160	> 160		
Cc1c(Cl)cccc1Nc1ccccc1C(=O)O [Tolfenamic acid]	0.991	0.971	0.962	0.923	0.864	> 160	> 160	≤ 80	> 160	> 160	≤ 80	> 160	≤ 80	> 160	≤ 160	≤ 80	> 160	≤ 160	≤ 160	> 160	≤ 80	≤ 40	> 160	≤ 80	≤ 40	> 160	≤ 160	≤ 160	> 160		
CCOC1O[C@H]([C@@H](COCc2ccccc2)OCc2ccccc2)[C@H](OCc2ccccc2)[C@H]1O (stereo partly drawn) [Tribenoside]	0.995	0.955	0.976	0.945	0.947	> 40	> 40	> 40	> 40	> 80	> 40	> 20	> 40	> 40	> 80	> 40	> 40	> 40	> 80	≤ 160	> 40	> 40	> 40	> 40	> 40	> 20	> 80	> 40	> 80		
COc1cc(C(=O)NS(=O)(=O)c2ccccc2C)ccc1Cc1cn(C)c2ccc(NC(=O)OC3CCCC3)cc12 [Zafirlukast]	0.904	0.876	0.825	0.81	0.841	> 160	> 80	≤ 10	≤ 20	≤ 20	> 80	> 160	≤ 20	≤ 80	≤ 10	≤ 80	> 80	≤ 80	≤ 10	> 80	≤ 20	> 80	≤ 80	≤ 40	≤ 40	≤ 40	≤ 80	≤ 80	≤ 80		

Reference: the supplement of paper PMC12350171
